Entries after “also recorded” stand apart in the source; their conditions may differ.
Experiments:
eIF4E = eIF4E inhibitor screen: luciferase under FGF 5′UTR in FaDu cells (highly cap-dependent translation); assay type: cell-based; conditions: for luciferase expression under the control of the FGF 5′UTR: 1.0 μM, 48 h, FaDu UTR cells, normalized to DMSO (FIG. 8); for inhibition of highly cap-dependent translation (summary statement): summary in the disclosure
From the text: Since highly cap-dependent translation is associated with synthesis of proteins involved in cancer, a compound that inhibits this pathway may be used as an anti-cancer agent. The assay was developed by cloning the highly structured 5′ UTR of FGF, which requires high levels of eIF4E before protein synthesis can initiate, into the proper orientation of the reporter gene luciferase, and then stably transfecting the modified luciferase gene into the cell line FaDu that is known to have high levels of eIF4E. The activity of luciferase is then monitored in the presence and absence of the tested compound.
Generation of Stable Cell Lines: The pMS110 plasmid (pGL3-control plasmid from Promega which contains a neo selectable marker) was used to generate pMS110-5′UTR by cloning the 5′ UTR of FGF just upstream of the luciferase AUG start codon. FaDu cells, a head and neck cancer cell line, were transfected using Lipofectamine2000 (Invitrogen). Twenty-four hours after transfection G418 was added at 500 μg/ml. Cells were maintained in G418 for 14 days, and then individual colonies were transferred to a 96-well plate for propagation. Individual clones were analyzed for luciferase expression by plating 10^4 cells per well in a 96-well plate for 24 hours before lysing the cells and analyzing for luciferase activity in a Victor III (Perkin Elmer) or Lucy2 (Rosys Anthos). FaDu9000 and FaDuUTR were the clones that expressed the highest level of active luciferase following transfection of pMS110 and pMS110-5′UTR, respectively.
Analysis of Rapamycin Responsiveness: Cells of FaDu9000 and FaDuUTR were plated at 1×10^4 cells/well in a 96-well dish. Twenty-four hours after plating, 0.1% DMSO (vehicle control) or 10 nM rapamycin were added to each well, and the cells were maintained for an additional 24 or 48 hours. The cells were then lysed and luciferase activity was determined using BriteGlo (Promega) as per manufacturer's instruction and recorded using the Victor III. Following subtraction of background activity, the mean value of quadruplicate samples for a given experiment was determined, and the treated cells were normalized to the control. At least four separate experiments were conducted, and the mean and standard error were calculated. To determine if rapamycin affected cell viability, an MTS assay (Cell Proliferation One Solution, Promega) was carried out on each population at 48 hours in two separate experiments.
The FaDu cell line stably transfected with FGF 5′UTR was used to screen thirty-nine representative compounds, each at a concentration of 1.0 μM. Additional cells were treated with vehicle, 0.3% DMSO. Cells were plated for twenty-four hours in a 96-well plate. Each compound was then added to triplicate wells, and the cells were incubated for forty-eight hours before measuring luciferase activity as above. The mean luciferase activity was measured using Promega's Brite-Glo kit, and the mean for each sample was normalized to DMSO. The experiment was then repeated, and the average and standard deviation of the two experiments were determined (FIG. 8).

NF-κB [1] = assay: NF-κB inhibitor screen: basal NF-κB-dependent luciferase expression in HEK/NF-κB cell line; assay type: cell-based; conditions: for basal NF-κB-dependent luciferase, six-point dose response: 10 nM-3300 nM (FIG. 12); for inhibition of basal NF-κB-dependent luciferase expression: 3.3 μM (FIG. 12); for inhibition of NF-κB (summary statement): summary in the disclosure
Procedure, shortened: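 HEK293 cells stably carrying a luciferase reporter under six NF-κB elements were treated with compound, unstimulated, 24 h after plating. Compounds were first tested at 1.0 μM (0.3% DMSO), later at six doses from 10 to 3300 nM, in triplicate. Brite-Glo luciferase signal was normalized to DMSO, or to the lowest dose for dose-response runs.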

AP-1 [2] = assay: AP-1 inhibitor screen: basal AP-1-dependent luciferase expression in HEK/AP-1 cell line; assay type: cell-based
Procedure, shortened: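 HEK293 cells stably carrying a luciferase reporter driven by three AP-1 elements were plated 24 hr, then given compound at 1.0 μM in 0.3% DMSO for 48 hr, in triplicate. Basal expression without stimulus was read as luminescence (Brite-Glo), normalized to DMSO; dose-response runs repeated two to four times.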

FaDu cells = assay type: cell-based; conditions: MTT, 24 hr, 10 nM to 3.3 μM (FIG. 9)
From the text: […]. Values greater than 1.0 indicate activation, and values less than 1.0 indicate inhibition.) The compounds that inhibited luciferase translation might, potentially, act by generally inhibiting translation, by reducing cell numbers through inhibition of growth or by cell toxicity, or specifically by inhibiting highly cap-dependent translation. To analyze any general effects on cell viability, fourteen compounds were selected that altered luciferase activity (including a few that increased activity) to test for any effects on cell number. An MTT assay was used to monitor compounds for inhibition of cell growth and cell toxicity. The compounds were tested once in a six-point dose-response assay starting at 10 nM and increasing to 3.3 μM. FaDu cells were plated in a 96-well plate for 24 hr before addition of the compounds. Each compound was added in each of six concentrations (10 nM, 30 nM, 100 nM, 330 nM, 1000 nM, and 3300 nM), and each concentration was tested in triplicate. In addition, DMSO was used as a control. After incubating for 24 hr, the cell number was measured using the MTT assay.

carageenan-induced edema = assay: Carrageenan-induced rat paw edema test (anti-inflammatory activity); assay type: in vivo, Sprague-Dawley rats; conditions: for In vivo inflammation % inhibition: rat paw edema induced by carageenan injection
Procedure, shortened: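 Sprague-Dawley rats (male and female, 150-250 g), fasted 18 h, given compound orally at 50 mg/kg in 0.1% sodium CMC (alternatively i.v., s.c. or i.p.). 1% carrageenan injected sub-plantar in right hind paw 1 h later. Paw displacement read again 3 h later; % protection = [(Control−Test)/Control]×100 versus saline control.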

AP-1 [3] = assay: PMA-induced AP-1 luciferase expression in HEK cells; assay type: cell-based; conditions: for AP-1 % inhibition: four lead compounds, Table 13; for IC50: 6 point dose-response curves, read-out: IC50 concentrations AP-1
NF-κB [4] = assay: TNF-α-induced NF-κB-dependent luciferase expression in HEK cells; assay type: cell-based; parameters: NF-κB % inhibition: concentration or dose not given beside the values; conditions: for NF-κB % inhibition: four lead compounds, Table 13
[5] = test system: cell lines from the skin, one tumorigenic and one non-tumorigenic; assay: MTT viability in skin cell line pair, tumorigenic and non-tumorigenic; assay type: cell-based; conditions: 10 μM, 48 h, MTT; tumorigenic vs non-tumorigenic line
[6] = test system: cell lines from the prostate, one tumorigenic and one non-tumorigenic; assay: MTT viability in prostate cell line pair, tumorigenic and non-tumorigenic; assay type: cell-based; conditions: 10 μM, 48 h, tumorigenic vs non-tumorigenic line
Procedure: Additional compounds have also been tested for their ability to inhibit both TNF-α-induced NF-κB—expression and PMA-induced AP-1 expression. In both tests, the compound was added for 1 h, then the appropriate inducer was added, and luciferase activity was monitored 24 h later. Values were then normalized to the vehicle control, DMSO. Following the initial luciferase screens, studies were conducted to assess the cytotoxicity of the compounds in normal cells such as VSMC, HUVEC, or HPT cells. Human umbilical vein endothelial cells (HUVEC) represent the normal endothelium, vascular smooth muscle cells (VSMC) were represented by cells from the adult rat aorta, and human proximal tubule (HPT) cells represent the normal proximal tubule in vivo. These cells were grown to near confluency in multi-well plates, and were then treated for 48 h with either vehicle (0.1% DMSO) or 10 μM of each drug candidate. Following treatment, the media from the VSMC and HUVEC incubations were removed, and the amount of lactate dehydrogenase (LDH) released into the medium was determined with a commercial kit. LDH is normally confined to the cytosol, and its release represents “leakiness” of the plasma membrane. LDH activity was expressed as % increase over vehicle-treated cells. […] The number of both live and dead cells was counted using an automated cell viability analyzer. The % decrease in numbers of viable cells was determined. Toxicity in the treated HPT cells was determined by the ethidium homodimer (EthHD) uptake assay. […] Results were expressed as a % increase in cell death over vehicle-treated cells. […] Following treatment, the viability of the cells was determined by the MTT assay. In this assay, the MTT dye is converted only in viable cells by intracellular enzymes to a colorimetric product that is quantitated by a microplate reader.
For the results in Table 13, cells were grown to near confluency in multi-well plates, then treated for 48 h with either vehicle (0.1% DMSO) or 10 μM of each drug candidate. Following treatment, the media from the VSMC and HUVEC incubations were removed, and the amount of lactate dehydrogenase (LDH) released into the medium was determined with a commercial kit and expressed as a % increase over vehicle-treated cells. HPT toxicity was determined by the ethidium homodimer (EthHD) uptake assay. Inside the cell, EthHD produces a strong fluorescent signal, which is proportional to the amount of cell death, expressed as a % increase in cell death over vehicle-treated cells. […] The cells were treated for 48 h with vehicle (0.1% DMSO) or 10 μM of each drug candidate, and the viability of the cells was determined by the MTT assay, expressed as a % decrease in viability compared to vehicle-treated cells. […]

Compound: 2-(4-Methyl-2-methylamino-thiazol-5-yl)-3-(4-chloro-phenyl)-3H-quinazolin-4-one [Example 244]
- luciferase expression under the control of the FGF 5′UTR (eIF4E): inhibited luciferase expression
- inhibition of highly cap-dependent translation (summary statement) (eIF4E): capable of inhibiting
- basal NF-κB-dependent luciferase, six-point dose response (NF-κB [1]; listed as Compound 4): substantial activity at submicromolar concentrations; also recorded: robust inhibition
- inhibition of basal NF-κB-dependent luciferase expression (NF-κB [1]): about 50%
- inhibition of NF-κB (summary statement) (NF-κB [1]): capable of inhibiting
- basal AP-1-dependent luciferase, six-point dose response (AP-1 [2]; 10 nM-3300 nM (FIG. 14)): substantial activity at submicromolar concentrations

Compound: COc1ccc(C(=O)c2sc(Nc3ccc(Cl)cc3)nc2-c2ccncc2)cc1 [Example 116]
- luciferase expression under the control of the FGF 5′UTR (eIF4E): inhibited luciferase expression
- inhibition of luciferase activity (FGF 5′UTR) (eIF4E; highest concentration tested): greater than 90%
- inhibition of highly cap-dependent translation (summary statement) (eIF4E): capable of inhibiting
- basal NF-κB-dependent luciferase, six-point dose response (NF-κB [1]): robust inhibition
- inhibition of basal NF-κB-dependent luciferase expression (NF-κB [1]): about 50%
- inhibition of NF-κB (summary statement) (NF-κB [1]): capable of inhibiting
- FaDu cell number / growth / viability (FaDu cells): inhibited cell numbers at each concentration tested
- basal AP-1-dependent luciferase expression (AP-1 [2]; 1.0 μM, 48 hr screen of 39 compounds (FIG. 13)): almost complete inhibition

Compound: CCOC(=O)Nc1nc(-c2ccccc2)c(-c2nc3ccccc3c(=O)n2-c2ccccc2)s1 [Example 159, [5-(4-Oxo-3-phenyl-3,4-dihydro-quinazolin-2-yl)-4-phenyl-thiazol-2-yl]-carbamic acid ethyl ester]
- luciferase expression under the control of the FGF 5′UTR (eIF4E): increased luciferase expression
- inhibition in vivo at 50 mg/kg (carageenan-induced edema; po, 3 h, carrageenan-induced rat paw edema, defined in Example 397, read-out: % Protection): 75%
- inhibition at 1 µM (NF-κB [1]; 1 uM, determined as described in Example 398, read-out: NFkB inhibition @ 1 uM): 80%
- inhibition at 1 µM (AP-1 [2]; AP1, 1 uM, determined as described in Example 398): 7%

Compound: Cc1ccccc1-n1c(-c2sc(Nc3ccccc3)nc2C)nc2ccccc2c1=O [PMCR 20]
- AP-1 % inhibition (AP-1 [3]): 73%
- NF-κB % inhibition (NF-κB [4]): 21%
- In vivo inflammation % inhibition (carageenan-induced edema): 42%
- Differential Toxicity* Skin [5]: Neither
- Differential Toxicity* Prostate [6]: Cancer

Compound: CNc1nc(-c2ccccc2)c(-c2nc3ccccc3c(=O)n2-c2ccccc2OC)s1 [PMCR 75]
- IC50 (AP-1 [3]): 200 nM
- AP-1 % inhibition (AP-1 [3]): 90%
- IC50 (NF-κB [4]; 6 point dose-response curves, read-out: IC50 concentrations NF-κB): 500 nM
- In vivo inflammation % inhibition (carageenan-induced edema): 56%
- Differential Toxicity* Skin [5]: Both
- Differential Toxicity* Prostate [6]: Normal

Compound: Cc1nc(Nc2ccc(Cl)cc2)sc1-c1nc2ccccc2c(=O)n1-c1ccccc1Cl [PMCR 120]
- AP-1 % inhibition (AP-1 [3]): 27%
- In vivo inflammation % inhibition (carageenan-induced edema): 58%
- Differential Toxicity* Skin [5]: Cancer
- Differential Toxicity* Prostate [6]: Both

Compound: CC(=O)c1ccc(-n2c(-c3cc(-c4ccncc4)c(N4CCOCC4)s3)nc3ccccc3c2=O)cc1 [PMCR 242]
- IC50 (AP-1 [3]): 5000 nM
- AP-1 % inhibition (AP-1 [3]): 84%
- NF-κB % inhibition (NF-κB [4]): 66%
- inflammation in the in vivo assay (carageenan-induced edema; rat paw edema): strongly inhibited inflammation
- In vivo inflammation % inhibition (carageenan-induced edema): 80%
- Differential Toxicity* Skin [5]: Neither
- Differential Toxicity* Prostate [6]: Cancer

— patent publication US8829014B2, “Thiazole and thiophene analogues, and their use in treating autoimmune diseases and cancers” (Board of Supervisors of Louisiana State University and …, priority 2006, dated 2014)
